Patent publication US4537719A, “4-Methylsulfonyl-azetidinone derivatives” (Ajinomoto Company Incorporated, priority 1981, dated 1985)

Molecular target: T1, β-lactamase (Enterobacter cloacae, UniProt P05364)
T1 construct: obtained by destruction of the microbial cells with ultrasonic waves; endogenous in cells
Test: β-lactamase inhibition (iodometric absorbance at 575 nm; β-lactamase solution obtained by ultrasonic destruction of microbial cells)
Format: biochemical
Conditions: Enterobacter cloacae used as the β-lactamase-producing microorganism; pH 7.0, 30° C., 20 minutes; sample concentration not given
Procedure: A phosphate buffer solution (pH 7.0, 0.5M, 0.2 ml), a sample*, which is a β-lactamase inhibiting agent, dissolved in the same buffer solution as mentioned above, and water (10 ml) were put in a test tube. In this tube, ampicillin (2 mM, 0.2 ml) in the case of penicillinase, and cephaloridine (2 mM, 0.2 ml) in the case of cephalosporinase, were added. This mixture was stirred moderately for 5 minutes at 30° C. in a thermostat. Microbial cells producing β-lactamase were collected, washed and suspended in the same buffer solution as above and thereto a β-lactamase solution (0.1 ml) obtained by destruction of the microbial cells with ultrasonic waves was added and reacted for 20 minutes.
The reaction was stopped by adding sodium tungstate (0.15M, pH 4.0, 1 ml) and an iodo reagent (3 ml) having iodine (0.1 mM), potassium iodide (1.6 mM) and 0.4% starch solution, (pH 6.0) was added thereto and was allowed to stand for 20 minutes. The absorbance was determined at 575 nm.
On the other hand, the same experiment as above without the sample (Control) was carried out and the absorbances were determined in the same manner as above.
From each determined value as obtained above, the difference between the absorbance of the blank and that of the sample, referred to as As, and the difference between the absorbance of the blank and that of the Control referred to as AB were obtained, and therefrom the inhibiting ratio was calculated by the following equation:
Inhibiting Ratio(%)=(AS/AB)×100
Some of the results as obtained above, in which Enterobacter cloacae was used as the β-lactamase-producing microorganism was used are as follows: […]

T1 sequence (P05364 21-381): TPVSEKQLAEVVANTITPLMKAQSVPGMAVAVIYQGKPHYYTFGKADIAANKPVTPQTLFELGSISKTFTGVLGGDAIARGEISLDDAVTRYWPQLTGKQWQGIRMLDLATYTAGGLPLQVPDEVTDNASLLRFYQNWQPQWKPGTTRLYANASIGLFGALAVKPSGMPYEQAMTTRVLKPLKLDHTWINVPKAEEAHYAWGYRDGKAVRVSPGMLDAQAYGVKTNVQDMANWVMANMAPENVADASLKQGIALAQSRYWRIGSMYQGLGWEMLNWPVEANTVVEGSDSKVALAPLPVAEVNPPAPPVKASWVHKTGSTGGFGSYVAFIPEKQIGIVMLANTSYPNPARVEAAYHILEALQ

Structure (SMILES)	Inhibiting Ratio (%)
COC(=O)C(C(=O)O)N1C(=O)CC1SC (stereo not shown) [Sample 1, 1-(1-carboxy-1-methyoxycarbonylmethyl)-4-methylthio-2-azetidinone]	46.2
COC(=O)C(C(=O)O)N1C(=O)CC1S(C)(=O)=O (stereo not shown) [Sample 2, 1-(1-carboxy-1-methoxycarbonylmethyl)-4-methylsulfonyl-2-azetidinone]	51.4
CC(C)=C(C(=O)O)N1C(=O)[C@@H](NC(=O)[C@H](N)c2ccccc2)[C@H]1S(C)(=O)=O [Sample 3, (3R,4R)-1-(1-carboxy-2-methylprope-1-nyl)-4-methylsulfonyl-3-[D-(-)-α-aminophenylacetamide]-2-azetidinone]	27.6
CC(C)=C(C(=O)O)N1C(=O)[C@@H](N)[C@H]1S(C)(=O)=O [Sample 4, (3R, 4R)-1-(1-carboxy-2-methylprope-1-nyl)-4-methylsulfonyl-3-amino-2-azetidinone]	35.8
